The source made the active and inactive calls.
Columns and labels:
[1] = Luminescence Cell-Based Dose Confirmation to Identify Activators of 5'UTR Stem-Loop Driven Alpha-Synuclein mRNA Translation in H4 Neuroglioblastoma Cells. [Related pubchem assays: 1829 (Project Summary), 1814 (Primary HTS)]; assay type: functional
[2] = Luminescence Cell-Based Dose Response HTS to Identify Activators of Luciferase Translation or Activity in H4 […] Cells. [Related pubchem assays: 1829 (Project Summary), 1814 (Primary HTS)]; assay type: functional
[3] = Luminescence Cell-Based Dose Response to Identify Activators of Luciferase Translation or Activity in H4-C Neuroglioblastoma Cells. [Related pubchem assays: 1829 (Project Summary), 1814 (Primary HTS)]; assay type: functional
H4 = assay: Luminescence Cell-Based Dose Response HTS to Identify Activators of 5'UTR Stem-Loop Driven Prion Protein mRNA Translation in H4 Neuroglioblastoma Cells. [Related pubchem assays: 1829 (Project Summary), 1814 (Primary HTS)]; assay type: functional; details: Homo sapiens
[4] = Luminescence Cell-Based Dose Response to Identify Activators of 5'UTR Stem-Loop Driven Prion Protein mRNA Translation in H4-C Neuroglioblastoma Cells. [Related pubchem assays: 1829 (Project Summary), 1814 (Primary HTS)]; assay type: functional
[5] = target: Mitogen-activated protein kinase 10 (Homo sapiens, UniProt P53779); assay: Dose response biochemical screening assay for inhibitors of c-Jun N-Terminal Kinase 3 (JNK3). [Related pubchem assays: 746 ]
Sequence of Mitogen-activated protein kinase 10 (P53779 whole entry, the tested form may be a part): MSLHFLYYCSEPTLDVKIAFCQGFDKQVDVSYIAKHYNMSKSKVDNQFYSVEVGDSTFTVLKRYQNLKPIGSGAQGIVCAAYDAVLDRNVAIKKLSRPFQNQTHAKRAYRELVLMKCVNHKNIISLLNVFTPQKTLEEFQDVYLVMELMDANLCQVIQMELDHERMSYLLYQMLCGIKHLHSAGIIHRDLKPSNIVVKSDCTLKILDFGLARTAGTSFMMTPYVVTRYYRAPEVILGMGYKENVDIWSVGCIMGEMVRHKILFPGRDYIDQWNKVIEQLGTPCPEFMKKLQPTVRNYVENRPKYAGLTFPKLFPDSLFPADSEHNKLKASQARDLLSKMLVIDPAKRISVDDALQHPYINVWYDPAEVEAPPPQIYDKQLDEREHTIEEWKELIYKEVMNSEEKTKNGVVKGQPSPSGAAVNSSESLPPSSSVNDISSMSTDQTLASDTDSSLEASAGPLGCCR

[6] = target: T1, Oxysterols receptor LXR-beta (Homo sapiens, UniProt P55055); assay type: functional, cell-based;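 note: agonist activity at LXR measured by a cell-based luminescence readout across a dose range, run as a counterscreen for daf-12 agonists; HEK293 cells with Gal4-LXR fusion and GAL4-driven luciferase reporter; potency for activation of Gal4-LXR reporter so compounds are agonists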
T1 sequence (P55055 whole entry): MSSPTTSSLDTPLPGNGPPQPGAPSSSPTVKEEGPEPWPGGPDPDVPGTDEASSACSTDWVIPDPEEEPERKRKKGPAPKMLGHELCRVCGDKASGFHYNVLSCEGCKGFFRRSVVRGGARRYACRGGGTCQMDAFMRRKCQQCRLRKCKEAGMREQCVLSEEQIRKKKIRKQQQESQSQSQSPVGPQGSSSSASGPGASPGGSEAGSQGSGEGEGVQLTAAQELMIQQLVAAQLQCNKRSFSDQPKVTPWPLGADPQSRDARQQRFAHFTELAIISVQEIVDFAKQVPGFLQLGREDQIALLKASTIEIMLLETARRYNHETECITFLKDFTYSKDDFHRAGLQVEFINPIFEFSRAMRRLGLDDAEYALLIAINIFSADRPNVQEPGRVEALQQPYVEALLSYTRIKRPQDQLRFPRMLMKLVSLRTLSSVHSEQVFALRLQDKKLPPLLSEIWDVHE

[7] = target: Luciferin 4-monooxygenase (Photinus pyralis, UniProt P08659); assay: firefly luciferase enzyme inhibitors, dose response, biochemical, luminescence (AID 1891)
Sequence of Luciferin 4-monooxygenase (P08659 whole entry): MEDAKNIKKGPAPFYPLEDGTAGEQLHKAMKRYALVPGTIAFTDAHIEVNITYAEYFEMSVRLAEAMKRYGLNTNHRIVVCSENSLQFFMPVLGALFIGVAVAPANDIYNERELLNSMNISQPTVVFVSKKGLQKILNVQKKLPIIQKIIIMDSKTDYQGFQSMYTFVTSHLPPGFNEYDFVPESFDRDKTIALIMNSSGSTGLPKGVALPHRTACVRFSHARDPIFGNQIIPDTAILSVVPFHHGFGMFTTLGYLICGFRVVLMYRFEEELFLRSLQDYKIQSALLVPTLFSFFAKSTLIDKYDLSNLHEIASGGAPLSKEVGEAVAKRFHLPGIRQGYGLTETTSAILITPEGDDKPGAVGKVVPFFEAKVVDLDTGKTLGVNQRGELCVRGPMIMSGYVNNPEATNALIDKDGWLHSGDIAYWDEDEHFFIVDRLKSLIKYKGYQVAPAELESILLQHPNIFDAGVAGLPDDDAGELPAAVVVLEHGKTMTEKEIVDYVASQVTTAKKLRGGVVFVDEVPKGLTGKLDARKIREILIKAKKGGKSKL

[8] = HepG2 cell cytotoxicity, dose response, cytotoxicity control, ATP luminescence, cherry-pick, activator set 2 (AID 1053143); assay type: functional, cell-based
[9] = HeLa cell cytotoxicity, dose response, cytotoxicity control for MgcRacGAP inhibitor project (AID 624300); assay type: functional
[10] = Luminescence Cell-Based Dose Confirmation HTS to Identify Inhibitors of Platelet Dense Granule Release. [Related pubchem assays: 1663 (Primary HTS), 1678 (Summary of Project)]; assay type: functional
Large T antigen = Large T antigen (Simian virus 40, UniProt P03070); assay type: functional, Betapolyomavirus macacae;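 note: Confirmatory-stage PubChem screen for compounds that inhibit SV40 T antigen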
Sequence of Large T antigen (P03070 whole entry): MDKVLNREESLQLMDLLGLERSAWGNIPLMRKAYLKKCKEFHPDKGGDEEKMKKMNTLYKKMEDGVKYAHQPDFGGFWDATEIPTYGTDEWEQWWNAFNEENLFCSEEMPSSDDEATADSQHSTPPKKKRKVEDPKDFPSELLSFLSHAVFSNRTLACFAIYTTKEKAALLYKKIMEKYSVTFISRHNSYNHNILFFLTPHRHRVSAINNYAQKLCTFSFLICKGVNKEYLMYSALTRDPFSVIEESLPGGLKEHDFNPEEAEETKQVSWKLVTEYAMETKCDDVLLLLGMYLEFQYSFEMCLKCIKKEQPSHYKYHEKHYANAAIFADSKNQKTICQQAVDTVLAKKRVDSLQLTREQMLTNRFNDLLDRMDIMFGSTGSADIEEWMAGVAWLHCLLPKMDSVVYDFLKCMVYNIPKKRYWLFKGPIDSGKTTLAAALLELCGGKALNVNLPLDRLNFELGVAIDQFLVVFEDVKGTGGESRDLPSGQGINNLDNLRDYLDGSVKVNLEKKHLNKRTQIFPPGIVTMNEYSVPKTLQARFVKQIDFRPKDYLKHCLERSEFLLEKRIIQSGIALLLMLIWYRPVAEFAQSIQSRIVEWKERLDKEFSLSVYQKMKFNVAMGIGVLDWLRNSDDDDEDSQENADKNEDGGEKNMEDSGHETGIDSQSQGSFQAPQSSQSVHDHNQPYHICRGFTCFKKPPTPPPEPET

[11] = target: T2, Rac GTPase-activating protein 1 (Homo sapiens, UniProt Q9H0H5); assay: MgcRacGAP GTPase-activating activity inhibitors, confirmation, biochemical, ADP Hunter fluorescence, primary and confirmatory (AID 624330); assay type: functional
T2 sequence (Q9H0H5 whole entry): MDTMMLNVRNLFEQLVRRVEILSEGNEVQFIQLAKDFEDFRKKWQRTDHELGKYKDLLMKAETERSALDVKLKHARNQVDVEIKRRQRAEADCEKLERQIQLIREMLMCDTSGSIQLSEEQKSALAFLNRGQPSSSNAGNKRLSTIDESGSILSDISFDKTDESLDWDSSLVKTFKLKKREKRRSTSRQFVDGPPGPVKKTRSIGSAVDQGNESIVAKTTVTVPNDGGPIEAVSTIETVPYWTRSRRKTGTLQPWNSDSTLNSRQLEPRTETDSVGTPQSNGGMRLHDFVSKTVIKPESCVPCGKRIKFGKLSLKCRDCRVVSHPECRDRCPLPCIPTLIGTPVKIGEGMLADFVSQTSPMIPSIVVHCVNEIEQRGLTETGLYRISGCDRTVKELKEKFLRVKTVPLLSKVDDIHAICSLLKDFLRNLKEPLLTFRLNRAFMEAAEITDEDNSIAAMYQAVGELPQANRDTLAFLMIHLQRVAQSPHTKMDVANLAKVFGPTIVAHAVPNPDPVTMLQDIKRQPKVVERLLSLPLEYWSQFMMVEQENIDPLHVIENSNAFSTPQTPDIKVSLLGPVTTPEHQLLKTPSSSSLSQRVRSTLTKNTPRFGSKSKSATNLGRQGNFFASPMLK

[12] = target: T3, Mannose-6-phosphate isomerase (Homo sapiens, UniProt P34949); assay: human PMI inhibitors, high substrate, primary screen, biochemical, fluorescence intensity, high mannose 6-phosphate (AID 1220)
T3 sequence (P34949 whole entry): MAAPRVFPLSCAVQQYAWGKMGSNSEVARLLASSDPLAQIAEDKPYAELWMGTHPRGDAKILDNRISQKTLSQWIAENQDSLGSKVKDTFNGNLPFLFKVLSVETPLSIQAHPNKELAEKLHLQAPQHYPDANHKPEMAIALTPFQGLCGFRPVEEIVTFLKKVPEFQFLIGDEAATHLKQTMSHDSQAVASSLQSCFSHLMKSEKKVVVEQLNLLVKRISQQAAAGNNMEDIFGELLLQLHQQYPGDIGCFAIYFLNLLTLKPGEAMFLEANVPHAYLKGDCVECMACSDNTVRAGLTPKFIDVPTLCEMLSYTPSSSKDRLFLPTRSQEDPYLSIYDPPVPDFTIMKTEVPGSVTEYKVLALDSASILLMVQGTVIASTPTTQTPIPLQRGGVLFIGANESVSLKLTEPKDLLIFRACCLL

[13] = target: Induced myeloid leukemia cell differentiation protein Mcl-1 (Homo sapiens, UniProt Q07820); assay type: functional
Sequence of Induced myeloid leukemia cell differentiation protein Mcl-1 (Q07820 whole entry): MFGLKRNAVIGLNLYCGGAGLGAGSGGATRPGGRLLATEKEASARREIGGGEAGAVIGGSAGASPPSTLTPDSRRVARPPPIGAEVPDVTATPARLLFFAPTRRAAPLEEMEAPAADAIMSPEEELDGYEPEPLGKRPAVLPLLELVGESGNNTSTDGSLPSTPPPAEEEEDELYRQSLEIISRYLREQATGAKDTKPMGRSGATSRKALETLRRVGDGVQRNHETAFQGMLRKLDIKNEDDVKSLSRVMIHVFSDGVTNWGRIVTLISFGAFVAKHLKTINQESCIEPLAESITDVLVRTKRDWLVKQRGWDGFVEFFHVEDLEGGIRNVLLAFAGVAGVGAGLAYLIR

Cytochrome P450 3A4 = Cytochrome P450 3A4 (Homo sapiens, UniProt P08684); details: Potency;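 note: confirmatory qHTS run detecting inhibitors and substrates of CYP3A4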
Sequence of Cytochrome P450 3A4 (P08684 whole entry): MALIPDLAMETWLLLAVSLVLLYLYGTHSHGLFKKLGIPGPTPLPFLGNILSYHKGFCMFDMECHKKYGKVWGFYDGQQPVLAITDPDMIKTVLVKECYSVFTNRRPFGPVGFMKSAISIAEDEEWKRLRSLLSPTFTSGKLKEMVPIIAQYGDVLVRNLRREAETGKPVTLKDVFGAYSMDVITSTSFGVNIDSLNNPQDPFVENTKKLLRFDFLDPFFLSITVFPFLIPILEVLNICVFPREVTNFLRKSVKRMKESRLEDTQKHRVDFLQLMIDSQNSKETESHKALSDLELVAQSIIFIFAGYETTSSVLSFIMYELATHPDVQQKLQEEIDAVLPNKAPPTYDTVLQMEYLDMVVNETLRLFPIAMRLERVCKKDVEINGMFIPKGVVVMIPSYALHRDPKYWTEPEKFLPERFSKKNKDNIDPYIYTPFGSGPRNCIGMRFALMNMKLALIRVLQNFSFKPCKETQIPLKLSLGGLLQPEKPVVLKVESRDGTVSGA

[14] = P. falciparum ATP4 D1247Y mutant growth inhibitors, dose response, NITD609-resistant line, SYBR Green, dry powder (AID 1159571); assay type: functional, cell-based;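 note: parasites synchronized at ring stage by sorbitol before testing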
[15] = P. falciparum 3D7-ScDHODH growth inhibitors, dose response, SYBR Green, dry powder samples (AID 1159570); assay type: functional, cell-based;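 note: parasite growth measured after 72 hours of compound exposure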
[16] = P. falciparum Dd2 growth inhibitors, dose response, SYBR Green, cherry-picked samples (AID 1159567); assay type: functional, cell-based
[17] = P. falciparum Dd2 growth inhibitors, dose response, SYBR Green, dry powder samples (AID 1159566); assay type: functional, cell-based;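 note: potency for growth inhibition with lower SYBR green DNA signal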
[18] = P. falciparum Dd2 growth inhibitors, dose response, SYBR Green, dry powder samples, set 9 (AID 1159568); assay type: functional, cell-based

O=C(NCc1ccccc1)c1cccc(COc2ccc(Cl)cc2)c1
EC50 [1]: 0.261 µM (active)
EC50 [2]: < 0.1 µM (active)
EC50 [3]: > 12 µM (not active)
EC50 (H4): > 120 µM (not active)
EC50 [4]: > 12 µM (not active)

COc1ccc(C(C)=O)cc1COC(=O)c1cc(C)oc1C
IC50 [5]: 61.8 µM (not active)

O=C(NC1CCC1)c1ccc(C#CC2CC2)cn1
EC50 [6]: > 67.5 µM (inactive)

Oc1ccc(/C=N/Nc2nccnc2Cl)cc1
EC50 [7]: 1.12 µM (active)
AC50 [8]: 13.7 µM (active)
CC50 [9]: 46.1 µM (active)
EC50 [10]: 0.138 µM (active)
IC50 (Large T antigen): 6.32 µM (active)
IC50 [11]: 16.3 µM (active)

CN(C)c1ccc(NC(=O)c2sc(SCC(=O)Nc3nccs3)nc2N)cc1
EC50 [1]: 0.236 µM (active)
EC50 [2]: < 0.1 µM (active)
CC50 [9]: 100 µM (active)
EC50 [3]: 0.575 µM (active)
EC50 [4]: 1.28 µM (active)
IC50 [11]: 107 µM (active)

CCOC(=O)c1c(C)oc2c1c(CN1CCN(C(=O)OCC)CC1)c(O)c1ccccc12
IC50 [12]: > 50 µM (not active)
IC50 [13]: 3.95 µM (active)

COc1cccc(COC(=O)Nc2ccccc2F)c1
EC50 [1]: 0.456 µM (active)
EC50 [2]: < 0.1 µM (inconclusive)
EC50 [3]: 0.344 µM (active)
EC50 [4]: 0.301 µM (active)

O=c1c(O)c(-c2ccccc2)oc2cc(O)ccc12 [3,7-DIHYDROXYFLAVONE]
AC50 (Cytochrome P450 3A4): 39.8 µM (inconclusive)

CNC(=O)c1[nH]cnc1C(=O)Nc1cccc(OC)c1
IC50 [5]: 50.1 µM (not active)

CCc1ccc2c(COC(=O)c3n[nH]c4ccccc34)cc(=O)oc2c1
IC50 [5]: > 93.1 µM (not active)

C[C@@H]1CN([C@@H](C)CO)C(=O)c2cccc(NC(=O)C3CC3)c2O[C@@H]1CN(C)C(=O)Nc1ccc(C(F)(F)F)cc1
AC50 [14]: 0.322 µM (active)
AC50 [15]: 0.312 µM (active)
AC50 [16]: 0.642 µM (active)
AC50 [17]: 0.275 µM (active)
AC50 [18]: 0.181 µM (active)

O=C(Nc1cccc(F)c1)N1CCCCN2[C@H](CO)[C@@H](c3ccc(C#Cc4cccnc4)cc3)[C@@H]2C1
AC50 [18]: 2.58 µM (active)

From ChEMBL document CHEMBL1201862, “PubChem BioAssay data set” (2004)
